Measured values published in paper PMC9181852, “In Vivo and In Vitro Biological Evaluation and Molecular Docking Studies of Compounds Isolated from Micromeria biflora (Buch. Ham. ex D.Don) Benth” (Molecules, 2022).

How the values were obtained:
HepG2 = experiment: Anticancer MTT assay, HepG2; assay type: cell-based; conditions: Homo sapiens, 24 h
Description: (§1) The MTT assay was used to assess the cytotoxicity of salicylalazine isolated from M. biflora as per the previously documented method. For the MTT assay, Gibco BRL was combined with 100 µg/mL of penicillin sodium salts, 10% FBS (Gibco), and sodium carbonate (2 mg/mL). The prepared medium was used to keep three human cancer cell lines: human hepatoma (HepG2), human A498, and renal NCI-h226 non-small cell lung). Mouse hepatocytes, including HepG2 and HepG-R, were planted in 96-well plates. The cell lines were preserved with salicylalazine (1.5–100 μM), hatched for 24 h, and then they were tracked using the MTT procedure^14. This method was used for all tested cell lines. The IC50 value of salicylalazine in different cell lines was calculated from the concentration-effect curves. The standard drug used in this experiment was paclitaxel.

[1] = Carrageenan-induced paw edema; assay type: in vivo, mice
Description: (§2) Healthy mice (Balb/c) with weight ranging from 20 to 22 g and ages 9 to 10 weeks were used in this screening model. The grown animals were provided with standard laboratory conditions such as standard food and water ad libitum. The in vivo biological screening test was performed at the Department of Veterinary Medicine, College of Agriculture and Veterinary Medicine, Qassim University Buraydah, Saudi Arabia, as well as Swabi University, KP, Pakistan, according to published procedures.
This model was used to identify the anti-inflammatory potency of salicylalazine purified from M. biflora according to the standard method. The animals were randomly distributed into different groups depending on the treatment. Group I was treated with distilled water (10 mL/kg), which acted as a negative control. […] After 30 min of the intraperitoneal subjection of the mentioned administrations, 1% carrageen (0.05 mL) was […] administrated in the right paw of each animal. The inflammation in every animal was recoded after 1–5 h of carrageenan treatment using a plethysmometer (LE 7500 plan lab S.L). The anti-inflammatory action of salicylalazine was measured using the following formula: Activity %=A−B /A×100 where A is the paw edema of the control group, and B is the paw edema of the screening group.

Hot plate analgesic test = assay type: in vivo, mice (Balb/c)
Description: as §2
The analgesic effect of salicylalazine isolated from M. biflora was obtained with help of a hot plate according to the published method. The animals were distributed into different groups according to the previously reported method. A preliminary screening test was performed on the animals using a hot plate (Harvard apparatus) sustained at 55 ± 2 °C. […] Group I (positive control) was administered with the standard drug, while Group II (negative control) was administered with normal saline. The other groups of animals were administered with 2.5, 5, 10, 15, and 20 mg/kg (PO). […] To avoid tissue damage, a cut-off time of 30 s was used for every animal. The latency time was recorded for all groups (n = 6) at consistent intervals (30, 60, 90, and 120 min).

A498 = experiment: Anticancer MTT assay, A498; assay type: cell-based; conditions: Homo sapiens, 24 h
Description: as §1

[2] = Traction muscle relaxation model; assay type: in vivo, mice (Balb/c)
Description: as §2
A traction screening model was adapted to identify the relaxation of muscle for salicylalazine isolated from M. biflora according to the standard method. The traction model was considered by using metallic wires covered with rubber, and then the wires were linked with each other using a stand around 60 cm upstairs of the lab bench. The animals were distributed into different groups, with each group comprising six animals (n = 6). The various groups of animals were administered water, diazepam, and salicylalazine at different doses. After administration, all groups of animals were subjected to traction screening after 30, 60, and 90 min. […] Traction testing was repeatedly performed to calculate the muscle relaxant ability of salicylalazine as per the reported method.

Compound: Oc1ccccc1/C=N/N=C/c1ccccc1O [Salicylalazine, salicylalazine]
- IC50 (HepG2): 20.8 ± 0.38 µM
- Attenuation of carrageenan-induced paw edema (maximum) ([1]; 15 mg/kg, after 3 h): 80.98%
- Inhibition of carrageenan-induced paw edema (maximum) ([1]; 20 mg/kg, 3 h after carrageenan): 90.22%
- Inhibition of carrageenan-induced paw edema ([1]; 20 mg/kg, after 1 h): 45.11%
- Latency time on hot plate (Hot plate analgesic test; dose 2.5 mg/kg, 30 min): 13.33 ± 0.55 s
- Latency time on hot plate (Hot plate analgesic test; dose 2.5 mg/kg, 60 min): 14.40 ± 0.83 s
- Latency time on hot plate (Hot plate analgesic test; dose 2.5 mg/kg, 90 min): 14.33 ± 0.64 s
- Latency time on hot plate (Hot plate analgesic test; dose 2.5 mg/kg, 120 min): 14.01 ± 0.43 s
- Latency time on hot plate (Hot plate analgesic test; dose 5 mg/kg, 30 min): 15.12 ± 0.80 s
- Latency time on hot plate (Hot plate analgesic test; dose 5 mg/kg, 60 min): 18.09 ± 0.69 s
- Latency time on hot plate (Hot plate analgesic test; dose 5 mg/kg, 90 min): 18.03 ± 0.90 s
- Latency time on hot plate (Hot plate analgesic test; dose 5 mg/kg, 120 min): 17.97 ± 1.00 s
- Latency time on hot plate (Hot plate analgesic test; dose 10 mg/kg, 30 min): 18.65 ± 0.95 s
- Latency time on hot plate (Hot plate analgesic test; dose 10 mg/kg, 60 min): 20.89 ± 0.90 s
- Latency time on hot plate (Hot plate analgesic test; dose 10 mg/kg, 90 min): 20.77 ± 0.87 s
- Latency time on hot plate (Hot plate analgesic test; dose 10 mg/kg, 120 min): 19.97 ± 0.80 s
- Latency time on hot plate (Hot plate analgesic test; dose 15 mg/kg, 30 min): 21.43 ± 0.50 s
- Latency time on hot plate (Hot plate analgesic test; dose 15 mg/kg, 60 min): 22.89 ± 0.80 s
- Latency time on hot plate (Hot plate analgesic test; dose 15 mg/kg, 90 min): 22.00 ± 0.98 s
- Latency time on hot plate (Hot plate analgesic test; dose 15 mg/kg, 120 min): 21.65 ± 0.98 s
- Latency time on hot plate (Hot plate analgesic test; dose 20 mg/kg, 30 min): 23.00 ± 0.44 s
- Latency time on hot plate (Hot plate analgesic test; dose 20 mg/kg, 60 min): 23.90 ± 0.97 s
- Latency time on hot plate (Hot plate analgesic test; dose 20 mg/kg, 90 min): 22.80 ± 1.05 s
- Latency time on hot plate (Hot plate analgesic test; dose 20 mg/kg, 120 min): 22.79 ± 1.09 s
- IC50 (A498): 115.5 ± 0.42 µM
- Traction Test (%) ([2]; dose 2.5 mg/kg, 30 min): 21.23 ± 1.55%
- Traction Test (%) ([2]; dose 2.5 mg/kg, 60 min): 27.78 ± 2.10%
- Traction Test (%) ([2]; dose 2.5 mg/kg, 90 min): 28.65 ± 1.02%
- Traction Test (%) ([2]; dose 5 mg/kg, 30 min): 28.12 ± 1.60%
- Traction Test (%) ([2]; dose 5 mg/kg, 60 min): 34.56 ± 2.07%
- Traction Test (%) ([2]; dose 5 mg/kg, 90 min): 35.34 ± 2.00%
- Traction Test (%) ([2]; dose 10 mg/kg, 30 min): 34.99 ± 1.70%
- Traction Test (%) ([2]; dose 10 mg/kg, 60 min): 39.45 ± 2.12%
- Traction Test (%) ([2]; dose 10 mg/kg, 90 min): 40.66 ± 1.88%
- Traction Test (%) ([2]; dose 15 mg/kg, 30 min): 45.78 ± 1.88%
- Traction Test (%) ([2]; dose 15 mg/kg, 60 min): 52.98 ± 2.15%
- Traction Test (%) ([2]; dose 15 mg/kg, 90 min): 52.32 ± 2.04%
- Traction Test (%) ([2]; dose 20 mg/kg, 30 min): 53.72 ± 1.89%
- Traction Test (%) ([2]; dose 20 mg/kg, 60 min): 60.56 ± 2.13%
- Traction Test (%) ([2]; dose 20 mg/kg, 90 min): 61.32 ± 2.06%
